Results from the NIST ThermoML archive (doi:10.1021/je300873x).
Numbers after ± are expanded uncertainties.

Assay: mn = molality of the nth substance listed, in mol/kg
Conditions: for surface tension liquid-gas: Pendant drop shape; for electrical conductivity: Liquid, Digital conductivity meter

CCCCCCCCCCCCCC[N+](C)(CCO)CCO.[Br-] [N,N-bis(2-hydroxyethyl)-N-methyltetradecanaminium bromide] + O
Conditions | electrical conductivity [S/m] | surface tension liquid-gas [mN/m]
298.15 K, m1 = 0.0003 | – | 64.43 ± 0.58
298.15 K, m1 = 0.00061 | – | 59.09 ± 0.54
298.15 K, m1 = 0.00081 | – | 56.14 ± 0.51
298.15 K, m1 = 0.00102 | – | 54.31 ± 0.5
298.15 K, m1 = 0.00152 | – | 48.51 ± 0.45
298.15 K, m1 = 0.00203 | – | 44.69 ± 0.42
298.15 K, m1 = 0.00254 | – | 40.4 ± 0.39
298.15 K, m1 = 0.0026 | 0.021 ± 0.0001 | –
298.15 K, m1 = 0.0027 | 0.0218 ± 0.0001 | –
298.15 K, m1 = 0.0028 | 0.0226 ± 0.0001 | –
298.15 K, m1 = 0.00292 | 0.0235 ± 0.0001 | –
298.15 K, m1 = 0.00305 | 0.0242 ± 0.0001 | 38.3 ± 0.37
298.15 K, m1 = 0.00319 | 0.025 ± 0.0001 | –
298.15 K, m1 = 0.00334 | 0.0255 ± 0.0001 | –
298.15 K, m1 = 0.00351 | 0.0259 ± 0.0001 | –
298.15 K, m1 = 0.00369 | 0.0262 ± 0.0001 | –
298.15 K, m1 = 0.0039 | 0.0267 ± 0.0001 | –
298.15 K, m1 = 0.00412 | 0.0272 ± 0.0001 | –
298.15 K, m1 = 0.00438 | 0.0277 ± 0.0001 | –
298.15 K, m1 = 0.00467 | 0.0283 ± 0.0001 | 38.31 ± 0.37
298.15 K, m1 = 0.00501 | 0.0289 ± 0.0001 | –
298.15 K, m1 = 0.00508 | – | 38.46 ± 0.38
298.15 K, m1 = 0.00539 | 0.0298 ± 0.0001 | –
298.15 K, m1 = 0.00584 | 0.0306 ± 0.0001 | –
298.15 K, m1 = 0.00609 | – | 38.23 ± 0.37
298.15 K, m1 = 0.00637 | 0.0317 ± 0.0001 | –
298.15 K, m1 = 0.00812 | – | 38.23 ± 0.37
303.15 K, m1 = 0.00259 | 0.0232 ± 0.0001 | –
303.15 K, m1 = 0.00269 | 0.024 ± 0.0001 | –
303.15 K, m1 = 0.0028 | 0.025 ± 0.0001 | –
303.15 K, m1 = 0.00292 | 0.0257 ± 0.0001 | –
303.15 K, m1 = 0.00304 | 0.0268 ± 0.0001 | –
303.15 K, m1 = 0.00318 | 0.0278 ± 0.0001 | –
303.15 K, m1 = 0.00333 | 0.0282 ± 0.0001 | –
303.15 K, m1 = 0.0035 | 0.029 ± 0.0001 | –
303.15 K, m1 = 0.00369 | 0.0295 ± 0.0001 | –
303.15 K, m1 = 0.00389 | 0.03 ± 0.0001 | –
303.15 K, m1 = 0.00412 | 0.0305 ± 0.0001 | –
303.15 K, m1 = 0.00438 | 0.0311 ± 0.0001 | –
303.15 K, m1 = 0.00467 | 0.0318 ± 0.0001 | –
303.15 K, m1 = 0.005 | 0.0325 ± 0.0001 | –
303.15 K, m1 = 0.00539 | 0.0334 ± 0.0001 | –
303.15 K, m1 = 0.00584 | 0.0343 ± 0.0001 | –
303.15 K, m1 = 0.00637 | 0.0356 ± 0.0001 | –
308.15 K, m1 = 0.00259 | 0.0256 ± 0.0001 | –
308.15 K, m1 = 0.00269 | 0.0264 ± 0.0001 | –
308.15 K, m1 = 0.0028 | 0.0274 ± 0.0001 | –
308.15 K, m1 = 0.00291 | 0.0285 ± 0.0001 | –
308.15 K, m1 = 0.00304 | 0.0297 ± 0.0001 | –
308.15 K, m1 = 0.00318 | 0.0309 ± 0.0001 | –
308.15 K, m1 = 0.00333 | 0.0318 ± 0.0001 | –
308.15 K, m1 = 0.0035 | 0.0325 ± 0.0001 | –
308.15 K, m1 = 0.00368 | 0.0331 ± 0.0001 | –
308.15 K, m1 = 0.00388 | 0.0336 ± 0.0001 | –
308.15 K, m1 = 0.00411 | 0.0342 ± 0.0001 | –
308.15 K, m1 = 0.00437 | 0.0349 ± 0.0001 | –
308.15 K, m1 = 0.00466 | 0.0357 ± 0.0001 | –
308.15 K, m1 = 0.00499 | 0.0367 ± 0.0001 | –
308.15 K, m1 = 0.00538 | 0.0376 ± 0.0001 | –
308.15 K, m1 = 0.00583 | 0.0387 ± 0.0001 | –
308.15 K, m1 = 0.00636 | 0.0401 ± 0.0001 | –
313.15 K, m1 = 0.00258 | 0.028 ± 0.0001 | –
313.15 K, m1 = 0.00268 | 0.0291 ± 0.0001 | –
313.15 K, m1 = 0.00279 | 0.0303 ± 0.0001 | –
313.15 K, m1 = 0.00291 | 0.0314 ± 0.0001 | –
313.15 K, m1 = 0.00303 | 0.0327 ± 0.0001 | –
313.15 K, m1 = 0.00317 | 0.0341 ± 0.0001 | –
313.15 K, m1 = 0.00332 | 0.0353 ± 0.0001 | –
313.15 K, m1 = 0.00349 | 0.0364 ± 0.0001 | –
313.15 K, m1 = 0.00367 | 0.0373 ± 0.0001 | –
313.15 K, m1 = 0.00388 | 0.038 ± 0.0001 | –
313.15 K, m1 = 0.0041 | 0.0386 ± 0.0001 | –
313.15 K, m1 = 0.00436 | 0.0396 ± 0.0001 | –
313.15 K, m1 = 0.00465 | 0.0403 ± 0.0001 | –
313.15 K, m1 = 0.00498 | 0.0411 ± 0.0001 | –
313.15 K, m1 = 0.00537 | 0.0424 ± 0.0001 | –
313.15 K, m1 = 0.00582 | 0.0437 ± 0.0001 | –
313.15 K, m1 = 0.00634 | 0.0453 ± 0.0001 | –
318.15 K, m1 = 0.00258 | 0.0307 ± 0.0001 | –
318.15 K, m1 = 0.00268 | 0.0318 ± 0.0001 | –
318.15 K, m1 = 0.00279 | 0.033 ± 0.0001 | –
318.15 K, m1 = 0.0029 | 0.0344 ± 0.0001 | –
318.15 K, m1 = 0.00303 | 0.0355 ± 0.0001 | –
318.15 K, m1 = 0.00317 | 0.0372 ± 0.0001 | –
318.15 K, m1 = 0.00332 | 0.0389 ± 0.0001 | –
318.15 K, m1 = 0.00348 | 0.0407 ± 0.0001 | –
318.15 K, m1 = 0.00367 | 0.0413 ± 0.0001 | –
318.15 K, m1 = 0.00387 | 0.0425 ± 0.0001 | –
318.15 K, m1 = 0.0041 | 0.0436 ± 0.0001 | –
318.15 K, m1 = 0.00435 | 0.0446 ± 0.0001 | –
318.15 K, m1 = 0.00464 | 0.0455 ± 0.0001 | –
318.15 K, m1 = 0.00497 | 0.0467 ± 0.0001 | –
318.15 K, m1 = 0.00536 | 0.0478 ± 0.0001 | –
318.15 K, m1 = 0.0058 | 0.0494 ± 0.0001 | –
318.15 K, m1 = 0.00633 | 0.0511 ± 0.0001 | –
323.15 K, m1 = 0.00257 | 0.0334 ± 0.0001 | –
323.15 K, m1 = 0.00267 | 0.0347 ± 0.0001 | –
323.15 K, m1 = 0.00278 | 0.0359 ± 0.0001 | –
323.15 K, m1 = 0.0029 | 0.0374 ± 0.0001 | –
323.15 K, m1 = 0.00302 | 0.0388 ± 0.0001 | –
323.15 K, m1 = 0.00316 | 0.0406 ± 0.0001 | –
323.15 K, m1 = 0.00331 | 0.0424 ± 0.0001 | –
323.15 K, m1 = 0.00347 | 0.0444 ± 0.0001 | –
323.15 K, m1 = 0.00366 | 0.0464 ± 0.0001 | –
323.15 K, m1 = 0.00386 | 0.0477 ± 0.0001 | –
323.15 K, m1 = 0.00409 | 0.049 ± 0.0001 | –
323.15 K, m1 = 0.00434 | 0.0502 ± 0.0001 | –
323.15 K, m1 = 0.00463 | 0.0514 ± 0.0001 | –
323.15 K, m1 = 0.00496 | 0.0526 ± 0.0001 | –
323.15 K, m1 = 0.00535 | 0.054 ± 0.0001 | –
323.15 K, m1 = 0.00579 | 0.0559 ± 0.0001 | –
323.15 K, m1 = 0.00632 | 0.0577 ± 0.0001 | –
